pIC50: −log10 of the molar value.

In general, pIC50 refers to the negative decadic logarithm of the IC50, by convention in mol/L. The low end stands for a large IC50, the high end for a small IC50.

The assay deals with T1, CRTH2 (Homo sapiens, UniProt Q9Y5Y4).
T1 construct: expressed in transfected cells; host or cells: CHO cells
T1 sequence (Q9Y5Y4 1-395): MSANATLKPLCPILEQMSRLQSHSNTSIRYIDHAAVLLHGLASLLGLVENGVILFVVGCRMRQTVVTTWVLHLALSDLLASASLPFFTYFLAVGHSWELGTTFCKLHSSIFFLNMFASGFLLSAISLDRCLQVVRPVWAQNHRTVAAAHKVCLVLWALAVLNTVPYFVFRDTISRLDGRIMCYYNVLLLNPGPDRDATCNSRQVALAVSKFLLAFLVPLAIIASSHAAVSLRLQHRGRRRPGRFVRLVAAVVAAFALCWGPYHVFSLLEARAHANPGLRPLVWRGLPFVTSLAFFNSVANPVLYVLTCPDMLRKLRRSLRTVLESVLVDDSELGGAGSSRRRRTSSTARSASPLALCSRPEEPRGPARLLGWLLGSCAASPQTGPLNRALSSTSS
Description: FRET based competitive immunoassay (cAMP) in CRTH2 expressing CHO cells. The class given is cell-based. The following applies: CRTH2 expressing CHO cells incubated with forskolin and PGD2; Eu3+ cryptate-labeled anti-cAMP and d2-labeled cAMP. On the procedure: FRET Assay: To evaluate potency compounds were tested in a FRET based competitive immunoassay in which CRTH2 expressing CHO cells were incubated in the presence of forskolin and PGD2 along with Eu3+ cryptate-labeled anti-cAMP and d2-labeled cAMP.
As to `Cc1c(-c2ccc(=O)n(C)n2)c2cc(F)ccc2n1CC(=O)O` [Example 159, 2-(5-fluoro-2-methyl-3-(1-methyl-6-oxo-1,6-dihydropyridazin-3-yl)-1H-indol-1-yl)acetic acid], the pIC50 was 5.60.

Compound `Cc1c(Cc2ccc(=O)n(Cc3ccccc3F)n2)c2ccccc2n1CC(=O)O` [Example 74, 2-(3-((1-(2-fluorobenzyl)-6-oxo-1,6-dihydropyridazin-3-yl)methyl)-2-methyl-1H-indol-1-yl)acetic acid] gave a pIC50 of 8.70.

As for `Cc1c(-c2ccc(=O)n(Cc3ccccc3)n2)c2cc(Cl)cc(F)c2n1CC(=O)O` [Example 10, 2-(3-(1-Benzyl-6-oxo-1,6-dihydropyridazin-3-yl)-5-chloro-7-fluoro-2-methyl-1H-indol-1-yl)acetic acid], the pIC50 is 6.97.

In turn, `Cc1c(Cc2ccc(=O)n(Cc3ccccc3)n2)c2cc(Cl)ccc2n1CC(=O)O` [Example 80, 2-(3-((1-Benzyl-6-oxo-1,6-dihydropyridazin-3-yl)methyl)-5-chloro-2-methyl-1H-indol-1-yl)acetic acid] showed a pIC50 of 7.80.

For `Cc1c(Cc2nn(Cc3ccccc3)c(=O)c3ccccc23)c2cc(Cl)ccc2n1CC(=O)O` [Example 84, 2-(3-((3-Benzyl-4-oxo-3,4-dihydrophthalazin-1-yl)methyl)-5-chloro-2-methyl-1H-indol-1-yl)acetic acid], the negative-log IC50 (pIC50) was 7.55. This pIC50 is 0.25 log units lower than that of the compound before.

For `Cc1c(-c2ccc(=O)n(Cc3ccc(S(C)(=O)=O)cc3)n2)c2cc(Cl)ccc2n1CC(=O)O` [Example 66, 2-(5-chloro-2-methyl-3-(1-(4-(methylsulfonyl)benzyl)-6-oxo-1,6-dihydropyridazin-3-yl)-1H-indol-1-yl)acetic acid], the pIC50 is 6.84.

Compound `CCn1nc(-c2c(C)n(CC(=O)O)c3ccccc23)ccc1=O` [Example 182, 2-(3-(1-ethyl-6-oxo-1,6-dihydropyridazin-3-yl)-2-methyl-1H-indol-1-yl)-acetic acid] gave a pIC50 of 5.76.

For `Cc1c(-c2nn(Cc3ccccc3)c(=O)c3ccccc23)c2ccccc2n1CC(=O)N1CCCC1` [Example 49, 2-Benzyl-4-(2-methyl-1-(2-oxo-2-(pyrrolidin-1-yl)ethyl)-1H-indol-3-yl)phthalazin-1(2H)-one], the pIC50 is < 5.70.

For `Cc1c(-c2nn(Cc3c(F)cccc3F)c(=O)c3ccccc23)c2cc(F)ccc2n1CC(=O)O` [Example 116, 2-(3-(3-(2,6-difluorobenzyl)-4-oxo-3,4-dihydrophthalazin-1-yl)-5-fluoro-2-methyl-1H-indol-1-yl)acetic acid], the pIC50 is 8.15.

In turn, `Cc1c(Cc2ccc(=O)n(Cc3c(F)cccc3F)c2)c2cc(F)ccc2n1CC(=O)O` [Example 38, 2-(3-((1-(2,6-Difluorobenzyl)-6-oxo-1,6-dihydropyridin-3-yl)methyl)-5-fluoro-2-methyl-1H-indol-1-yl)acetic acid] gave a pIC50 of 8.15.

`Cc1c(-c2cn(CC(F)(F)F)c(=O)c3ccccc23)c2ccccc2n1CC(=O)O` [Example 251, 2-(2-methyl-3-(1-oxo-2-(2,2,2-trifluoroethyl)-1,2-dihydroisoquinolin-4-yl)-1H-indol-1-yl)acetic acid] had a pIC50 of 6.69.

As to `Cc1c(-c2cn(CCCC(F)(F)F)c(=O)c3c2CCCC3)c2cc(F)ccc2n1CC(=O)O` [Example 89, 2-(5-fluoro-2-methyl-3-(1-oxo-2-(4,4,4-trifluorobutyl)-1,2,5,6,7,8-hexahydro-isoquinolin-4-yl)-1H-indol-1-yl)acetic acid], the pIC50 was 6.91.

As to `Cc1c(Cc2ccc(=O)n(Cc3ccc(C(O)(C(F)(F)F)C(F)(F)F)cc3)n2)c2cc(F)ccc2n1CC(=O)O` [Example 239, 2-(5-fluoro-3-((1-(4-(1,1,1,3,3,3-hexafluoro-2-hydroxypropan-2-yl)benzyl)-6-oxo-1,6-dihydropyridazin-3-yl)methyl)-2-methyl-1H-indol-1-yl)acetic acid], the negative logarithm of the IC50 (pIC50) is 8.15.

`Cc1c(-c2cn(CC(O)(C(F)(F)F)C(F)(F)F)c(=O)c3ccccc23)c2cc(F)ccc2n1CC(=O)O` [Example 255, 2-(5-fluoro-2-methyl-3-(1-oxo-2-(3,3,3-trifluoro-2-hydroxy-2-(trifluoro-methyl)propyl)-1,2-dihydroisoquinolin-4-yl)-1H-indol-1-yl)acetic acid] gave a pIC50 of 7.26. This pIC50 is 0.89 log units lower than that of the compound before.

Regarding `Cc1c(Cc2ccc(=O)n(Cc3cc(F)ccc3F)n2)c2cc(F)ccc2n1CC(=O)O` [Example 336, (3-{[1-(2,5-difluorobenzyl)-6-oxo-1,6-dihydropyridazin-3-yl]methyl}-5-fluoro-2-methyl-1H-indol-1-yl)acetic acid], the pIC50 is 8.30.

As for `Cc1c(-c2nn(Cc3ccccc3)c(=O)c3ccccc23)c2ccccc2n1CC(N)=O` [Example 47, 2-(3-(3-Benzyl-4-oxo-3,4-dihydrophthalazin-1-yl)-2-methyl-1H-indol-1-yl)-acetamide], the negative logarithm of the IC50 (pIC50) was < 5.70.

Turning to `Cc1c(-c2ccc(=O)n(CC(C)(C)C)n2)c2cc(F)ccc2n1CC(=O)O` [Example 165, 2-(5-fluoro-2-methyl-3-(1-neopentyl-6-oxo-1,6-dihydropyridazin-3-yl)-1H-indol-1-yl)acetic acid], the pIC50 is < 6.00.

The compound `Cc1c(-c2ccc(=O)n(Cc3ccccc3)c2)c2cc(Cl)ccc2n1CC(=O)O` [Example 264, 2-(3-(1-benzyl-6-oxo-1,6-dihydropyridin-3-yl)-5-chloro-2-methyl-1H-indol-1-yl)acetic acid] showed a pIC50 of 8.00.

For the compound `Cc1cc(Cn2nc(-c3c(C)n(CC(=O)O)c4ccc(F)cc34)ccc2=O)c2ccccc2n1` [Example 158, 2-(5-fluoro-2-methyl-3-(1-((2-methylquinolin-4-yl)methyl)-6-oxo-1,6-dihydro-pyridazin-3-yl)-1H-indol-1-yl)acetic acid], the pIC50 was 7.14.

For the compound `Cc1c(-c2ccc(=O)n(Cc3cccc(C(F)(F)F)c3)n2)c2cc(F)ccc2n1CC(=O)O` [Example 218, 2-(5-fluoro-2-methyl-3-(6-oxo-1-(3-(trifluoromethyl)benzyl)-1,6-dihydropyridazin-3-yl)-1H-indol-1-yl)acetic acid], the pIC50 was 7.62.

Take `Cc1c(-c2nn(Cc3ccccc3F)c(=O)c3ccccc23)c2cc(Cl)ccc2n1CC(=O)O` [Example 98, 2-(5-Chloro-3-(3-(2-fluorobenzyl)-4-oxo-3,4-dihydrophthalazin-1-yl)-2-methyl-1H-indol-1-yl)acetic acid]: the pIC50 is 7.77. This pIC50 and that of the compound before are within 0.2 log units of each other.

`Cc1c(-c2nn(Cc3cccnc3)c(=O)c3ccccc23)c2cc(F)ccc2n1CC(=O)O` [Example 135, 2-(5-fluoro-2-methyl-3-(4-oxo-3-(pyridin-3-ylmethyl)-3,4-dihydrophthalazin-1-yl)-1H-indol-1-yl)acetic acid] had a pIC50 of 8.30.

Consider `Cc1c(-c2nn(CCOc3ccccc3)c(=O)c3ccccc23)c2cc(Cl)ccc2n1CC(=O)NS(C)(=O)=O` [Example 322, 2-(5-Chloro-2-methyl-3-(4-oxo-3-(2-phenoxyethyl)-3,4-dihydrophthalazin-1-yl)-1H-indol-1-yl)-N-(methylsulfonyl)acetamide], for which the negative-log IC50 (pIC50) was < 6.00.

On to `Cc1c(-c2nn(Cc3ccc(F)cc3)c(=O)c3ccccc23)c2cc(F)ccc2n1CC(=O)O` [Example 111, 2-(5-fluoro-3-(3-(4-fluorobenzyl)-4-oxo-3,4-dihydrophthalazin-1-yl)-2-methyl-1H-indol-1-yl)acetic acid], for which the pIC50 is < 7.70.

With `Cc1c(-c2nn(CCc3ccc(F)cc3)c(=O)c3ccccc23)c2ccccc2n1CC(=O)O` [Example 224, 2-(3-(3-(4-fluorophenethyl)-4-oxo-3,4-dihydrophthalazin-1-yl)-2-methyl-1H-indol-1-yl)acetic acid], the negative-log IC50 (pIC50) is 7.03.

`Cc1c(-c2ccc(=O)n(C(C)C)n2)c2cc(Cl)cc(Cl)c2n1CC(=O)O` [Example 235, 2-(5,7-dichloro-3-(1-isopropyl-6-oxo-1,6-dihydropyridazin-3-yl)-2-methyl-1H-indol-1-yl)acetic acid] had a negative-log IC50 (pIC50) of 5.80.

Take `Cc1c(Cc2ccc(=O)n(Cc3cccc(C(C)(C)O)c3)n2)c2cc(F)ccc2n1CC(=O)O` [Example 240, 2-(5-fluoro-3-((1-(3-(2-hydroxypropan-2-yl)benzyl)-6-oxo-1,6-dihydropyridazin-3-yl)methyl)-2-methyl-1H-indol-1-yl)acetic acid]: the pIC50 is 8.40.

`Cc1c(Cc2ccc(=O)n(Cc3ccc(F)c(F)c3)c2)c2cc(F)ccc2n1CC(=O)NS(C)(=O)=O` [Example 321, 2-(3-((1-(3,4-difluorobenzyl)-6-oxo-1,6-dihydropyridin-3-yl)methyl)-5-fluoro-2-methyl-1H-indol-1-yl)-N-(methylsulfonyl)acetamide]: the pIC50 was < 6.00.

The compound `Cc1c(-c2nn(CC(F)(F)F)c(=O)c3ccccc23)c2ccccc2n1CC(=O)O` [Example 177, 2-(2-Methyl-3-(4-oxo-3-(2,2,2-trifluoroethyl)-3,4-dihydrophthalazin-1-yl)-1H-indol-1-yl)-acetic acid] gave a pIC50 of 6.67.

In turn, `Cc1c(-c2nn(Cc3nc4ccccc4s3)c(=O)c3ccccc23)c2ccccc2n1CC(=O)O` [Example 167, 2-(3-(3-(benzo[d]thiazol-2-ylmethyl)-4-oxo-3,4-dihydrophthalazin-1-yl)-2-methyl-1H-indol-1-yl)acetic acid] gave a negative logarithm of the IC50 (pIC50) of 7.85.

These data come from patent publication US20110105509A1 (Wyeth, LLC, priority 2009, published 2011).
